Results from ChEMBL document CHEMBL1126876, “Synthesis of paraxanthine analogs (1,7-disubstituted xanthines) and other xanthines unsubstituted at the 3-position: structure-activity relationships at adenosine receptors” (J Med Chem, 1993).

Legend:
Adenosine A2 receptor = Adenosine A2 receptor (Rattus norvegicus, UniProt P29276+P30543); assay: Binding affinity against Adenosine A2 receptor in rat striatal membranes using [3H]5'-(N-ethylcarboxamido)-adenosine (NECA) as the ligand; assay type: cell membranes, Striatum, Membrane
Adenosine receptor A1 [1] = target: T1, Adenosine receptor A1 (Rattus norvegicus, UniProt P25099); assay: Binding affinity at Adenosine A1 receptor in rat brain cortical membrane using [3H]N6-R-phenylisopropyladenosine (R-PIA) as radioligand; assay type: cell membranes
T1 sequence (P25099 whole entry): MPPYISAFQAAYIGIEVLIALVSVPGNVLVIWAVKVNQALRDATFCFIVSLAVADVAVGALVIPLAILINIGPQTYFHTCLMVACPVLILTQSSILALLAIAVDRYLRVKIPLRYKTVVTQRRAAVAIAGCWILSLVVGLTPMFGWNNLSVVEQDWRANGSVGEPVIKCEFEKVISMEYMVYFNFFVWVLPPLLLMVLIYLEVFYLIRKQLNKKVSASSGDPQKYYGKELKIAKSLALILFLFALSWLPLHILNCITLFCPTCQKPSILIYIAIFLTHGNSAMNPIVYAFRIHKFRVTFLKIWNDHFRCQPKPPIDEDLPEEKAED

[2] = target: T2, Adenosine receptor A1 (Rattus norvegicus) (UniProt P25099); assay: Binding affinity at A1 adenosine receptor in rat brain cortical membrane using [3H]- N6-R-phenylisopropyladenosine (R-PIA) at 250 uM; assay type: cell membranes
T2 sequence (whole entry): T1 sequence (P25099 whole entry)

[3] = target: T3, Adenosine A2 receptor (Rattus norvegicus) (UniProt P29276+P30543); assay: Binding affinity at Adenosine A2 receptor in rat striatal membrane using [3H]- 5'-N-ethylcarboxamidoadenosine (NECA) at 200 uM; details: Striatum
[4] = target: T2, Adenosine receptor A1 (Rattus norvegicus); details: Brain, at 250 µM
[5] = target: T3, Adenosine A2 receptor (Rattus norvegicus); assay: Binding affinity at Adenosine A2 receptor in rat striatal membrane using [3H]- 5'-N-ethylcarboxamidoadenosine (NECA) at 200 uM; assay type: cell membranes; details: Striatum
[6] = target: T3, Adenosine A2 receptor (Rattus norvegicus); assay: Binding affinity at Adenosine A2 receptor in rat striatal membrane using [3H]- 5'-N-ethylcarboxamidoadenosine (NECA) at 20 uM; assay type: cell membranes; details: Striatum
Adenosine receptor A1 [7] = target: T1, Adenosine receptor A1; assay: Binding affinity at A1 adenosine receptor in rat brain cortical membrane using [3H]- N6-R-phenylisopropyladenosine (R-PIA); assay type: cell membranes
[8] = target: T2, Adenosine receptor A1 (Rattus norvegicus); assay: Binding affinity at Adenosine A1 receptor in rat brain cortical membrane using [3H]- N6-R-phenylisopropyladenosine (R-PIA) at 200 uM
[9] = target: T3, Adenosine A2 receptor (Rattus norvegicus); assay: Binding affinity at Adenosine A2 receptor in rat striatal membrane using [3H]- 5'-N-ethylcarboxamidoadenosine (NECA) at 1 uM; assay type: cell membranes; details: Striatum
[10] = target: T3, Adenosine A2 receptor (Rattus norvegicus); details: Striatum, Membrane, at 250 µM
Description: Binding affinity at Adenosine A2 receptor in rat striatal membrane using [3H]- 5'-N-ethylcarboxamidoadenosine (NECA) at 250 uM

[11] = target: T2, Adenosine receptor A1 (Rattus norvegicus); assay: Binding affinity at Adenosine A1 receptor in rat brain cortical membrane using [3H]- N6-R-phenylisopropyladenosine (R-PIA) at 250 uM; assay type: cell membranes
[12] = target: T2, Adenosine receptor A1 (Rattus norvegicus); assay: Binding affinity at Adenosine A1 receptor in rat brain cortical membrane using [3H]- N6-R-phenylisopropyladenosine (R-PIA); assay type: cell membranes; details: concentration not given here
[13] = target: T2, Adenosine receptor A1 (Rattus norvegicus); assay: Binding affinity at Adenosine A1 receptor in rat brain cortical membrane using [3H]- N6-R-phenylisopropyladenosine (R-PIA) at 100 uM; assay type: cell membranes

SMILES	Ki (Adenosine A2 receptor)	Ki (Adenosine receptor A1 [1])	other results
O=c1[nH]c2[nH]cnc2c(=O)n1C1CCCC1	13 µM	11 µM	–
CN1CN(C)c2c(O)nc(O)nc21	–	–	inhibition [2]: 5%; inhibition [3]: 6%
Cn1cnc2c(=O)[nH]c(=O)n(C)c21	–	–	inhibition [4]: 42%; inhibition [5]: 11%
O=c1[nH]c2[nH]cnc2c(=O)n1CCc1ccccc1	–	–	inhibition [6]: 0%
CC(C)n1c(=O)n(C)c(=O)c2[nH]cnc21	16 µM	–	–
C=CCn1c(=O)c2[nH]c(-c3ccccc3)nc2n(C)c1=O	2.1 µM	0.1 µM	–
CCn1c(=O)c2nc[nH]c2n(C)c1=O	23 µM	–	–
O=c1[nH]c2nc(-c3ccccc3)[nH]c2c(=O)n1Cc1cccc(Cl)c1	–	–	Ki (Adenosine receptor A1 [7]): 0.068 µM
Cn1c(=O)[nH]c2c(ncn2C)c1=O	–	–	inhibition [8]: 11%; inhibition [5]: 14%
O=c1[nH]c2[nH]c(-c3ccccc3)nc2c(=O)n1CCc1ccccc1	–	–	inhibition [9]: 0%
CCCn1cnc2c(=O)[nH]c(=O)[nH]c21	–	–	inhibition [2]: 42%; inhibition [10]: 15%
CCCn1c(=O)[nH]c(=O)c2[nH]c(-c3ccc(S(=O)(=O)O)cc3)nc21	–	–	inhibition [10]: 44%; inhibition [11]: 40%
C=CCn1cnc2c1c(=O)[nH]c(=O)n2CC=C	36 µM	36 µM	–
CCn1c(=O)[nH]c2[nH]c(C3CCCCC3)nc2c1=O	2.3 µM	–	–
O=c1[nH]c2[nH]cnc2c(=O)n1Cc1cccc(Cl)c1	26 µM	4.9 µM	–
CCn1c(=O)[nH]c2[nH]c(-c3ccccc3)nc2c1=O	1.8 µM	0.15 µM	–
CCCn1c(=O)n(C)c(=O)c2[nH]cnc21	19 µM	6.3 µM	–
CC(C)CCn1c(=O)c2nc[nH]c2n(CC(C)C)c1=O	11 µM	–	–
CCCn1cnc2[nH]c(=O)[nH]c(=O)c21	–	18 µM	inhibition [5]: 40%
O=c1[nH]c2[nH]cnc2c(=O)n1Cc1ccccc1	22 µM	2.8 µM	–
O=c1[nH]c(=O)c2[nH]c(-c3ccccc3)nc2[nH]1	21 µM	–	Ki (Adenosine receptor A1 [7]): 2.5 µM
CCCn1c(=O)[nH]c2[nH]c(C3CCCC3)nc2c1=O	0.58 µM	0.014 µM	–
O=c1[nH]c2[nH]c(-c3ccccc3)nc2c(=O)n1Cc1cccc(Cl)c1	–	–	inhibition [9]: 32%
C#CCn1c(=O)c2c(nc(-c3ccccc3)n2C)n(C)c1=O	6.4 µM	6.1 µM	–
Cn1c(=O)[nH]c(=O)c2[nH]c(-c3ccc(S(=O)(=O)O)cc3)nc21	–	–	inhibition [10]: 16%; inhibition [12]: 5%
Cn1c(=O)[nH]c2[nH]cnc2c1=O [1-METHYLXANTHINE]	47 µM	36 µM	–
CCCn1c(=O)[nH]c2ncn(C)c2c1=O	29 µM	21 µM	–
CCCCn1cnc2[nH]c(=O)[nH]c(=O)c21	66 µM	27 µM	–
Cn1c(=O)[nH]c(=O)c2[nH]cnc21 [3-METHYLXANTHINE]	59 µM	–	inhibition [13]: 24%

Second part, led by results:

Ki (Adenosine A2 receptor)	Ki (Adenosine receptor A1 [1])	SMILES	other results
24 µM	2.2 µM	CCCn1c(=O)[nH]c2nc(-c3ccc(S(=O)(=O)O)cc3)[nH]c2c1=O	–
59 µM	33 µM	Cn1cnc2[nH]c(=O)[nH]c(=O)c21 [7-METHYLXANTHINE]	–
1.9 µM	–	CCCn1c(=O)[nH]c2[nH]c(-c3ccccc3)nc2c1=O	–
16 µM	–	CC(C)Cn1c(=O)n(C)c(=O)c2nc[nH]c21 [ISOBUTYLMETHYLXANTHINE]	–
26 µM	20 µM	C#CCn1c(=O)[nH]c2[nH]cnc2c1=O	–
2.2 µM	0.26 µM	Cn1c(=O)[nH]c2[nH]c(-c3ccccc3)nc2c1=O	–
16 µM	22 µM	C#CCn1c(=O)[nH]c2ncn(C)c2c1=O	–
0.73 µM	0.21 µM	C#CCn1c(=O)[nH]c2[nH]c(-c3ccccc3)nc2c1=O	–
–	12 µM	O=c1[nH]c2nc[nH]c2c(=O)n1CCc1ccccc1	–
1.7 µM	0.17 µM	C#CCn1c(=O)[nH]c2[nH]c(C3CCCCC3)nc2c1=O	–
14 µM	9.9 µM	C#CCn1cnc2[nH]c(=O)n(C)c(=O)c21	–
10 µM	9.2 µM	C=CCn1c(=O)[nH]c2[nH]cnc2c1=O	–
61 µM	–	CCCn1c(=O)[nH]c(=O)c2[nH]c(-c3ccccc3)nc21	–
37 µM	5.7 µM	CCCn1c(=O)c2nc[nH]c2n(C)c1=O	–
31 µM	3.7 µM	CCn1c(=O)c2nc[nH]c2n(CC)c1=O	–
–	0.19 µM	O=c1[nH]c2nc(-c3ccccc3)[nH]c2c(=O)n1CCc1ccccc1	–
61 µM	–	CCCCn1c(=O)[nH]c2[nH]cnc2c1=O	–
9.7 µM	2.5 µM	CC(=O)Cn1c(=O)[nH]c2[nH]c(C3CCCC3)nc2c1=O	–
33 µM	13 µM	CCCn1c(=O)[nH]c2[nH]cnc2c1=O	–
32 µM	21 µM	Cn1c(=O)[nH]c2ncn(C)c2c1=O [PARAXANTHINE]	–
–	3.4 µM	Cn1c(=O)[nH]c(=O)c2[nH]c(-c3ccccc3)nc21	inhibition [10]: 17%
24 µM	–	CCCn1c(=O)[nH]c(=O)c2[nH]c(C3CCCCC3)nc21	–
53 µM	–	CC(C)n1c(=O)[nH]c(=O)c2[nH]cnc21	inhibition [13]: 34%
–	4 µM	CC(C)Cn1c(=O)c2nc[nH]c2n(CC(C)C)c1=O	–
4.8 µM	0.82 µM	C#CCn1c(=O)c2[nH]cnc2n(C)c1=O	–
